According to publication PMC11335512, “The first-in-class pro-apoptotic peptide PEP-010 is effective in monotherapy and in combination with paclitaxel on resistant ovarian adenocarcinoma cell models” (Frontiers in Pharmacology, 2024):

Experiments:
Type in all cases: cell-based
IGROV1CDDP [1] = assay: MTT assay, IC50 determination of chemotherapies; conditions: for IC50: MTT assay, 72 h treatment, IGROV1CDDP (cisplatin-resistant), mean ± SEM, three to six independent biological replicates
Method: (§1) The ovarian cell lines IGROV1, IGROV1CDDP, and IGROV1VCR were cultivated in RPMI 1640 Medium GlutaMAX with 10% FBS and 1% of pyruvate and glutamine. They were maintained at 5% CO2 and 37°C in a humidified atmosphere. All reagents are from Gibco® (Thermo Fisher Scientific, Carlsbad, CA, United States).
(§2) PEP-010 was first dissolved in 0.1% formic acid (10 mM) and then diluted in a cell culture medium at pH9 (to allow a full dissolution of the peptide). Experiments in similar conditions, but without the peptide, were conducted as negative controls. Staurosporine (Selleckchem, Houston, TX, United States) was used as a positive control at a concentration of 1 µM. Cells were collected or analyzed at the indicated time points. For combination conditions, the cells were treated with paclitaxel (Accord, London, United Kingdom) at the indicated concentrations for 72 h.
(§3) Here, 10,000 cells were seeded on 96-well plates in 100 µL of medium. The day after, the medium was replaced with fresh medium containing the appropriate drugs at the indicated concentrations: cisplatin (Mylan, Canonsburg, PA, United States), paclitaxel (Accord, London, United Kingdom), doxorubicin (Pfizer, New York, NY, United States), vincristine [Pfizer, New York, NY, United States)], and/or PEP-010. The plates were incubated at 37° in humidified air with 5% CO2 for 72 h. The MTT reagent (20 µL) was added at the end of the indicated time points, and plates were incubated for 2 h at 37°C. In addition, 100 µL of lysis buffer was added to each well. Subsequently, the plates were incubated for 2 h at 37°C, and the absorbance was measured at 570 nm (Tecan, Männedorf, CH).

IGROV1 [2] = assay: MTT assay, IC50 determination of chemotherapies; conditions: Homo sapiens, IGROV-1, 72 h treatment, IGROV1 parental, three to six independent biological replicates
Method: as §1, §2, §3

IGROV1VCR [3] = assay: MTT assay, IC50 determination of chemotherapies alone or with PEP-010; conditions: for fold change (FC) vs. IC50 IGROV1: IC50 in IGROV1VCR over IC50 in IGROV1, MTT 72 h; for IC50: 72 h treatment, IGROV1VCR (vincristine-resistant, expresses MDR pumps), drug alone, mean ± SEM, three to six independent biological replicates
Method: as §1, §2, §3

IGROV1CDDP [4] = assay: DNA damage, γH2AX immunofluorescence; conditions: 48 h post-treatment with PEP-010, IGROV1CDDP; untreated control 15.8 ± 2.8; mean ± SEM, three biological replicates
Method: (§4) Cells were seeded on 12 mm coverslips placed in a 24-well plate (24 h, 37°C, and 5% CO2). Cells were treated with PEP-010 as previously described. At the indicated time point, cells were washed with 1X PBS and fixed in 4% paraformaldehyde (Euromedex, Souffelweyersheim, FR) in 1X PBS (10 min, RT), followed by three washes in 1X PBS. Cells were then permeabilized with 2% Triton X-100 (Euromedex, Souffelweyersheim, FR) in 1X PBS (10 min, RT) and then washed in 1X PBS. Cells were saturated with 0.5% BSA (Euromedex, Souffelweyersheim, FR) in 1X PBS (40 min, RT) and then stained with an anti-γH2AX Ser139 antibody (mouse, 1:200, from BioLegend #613402). Incubation with primary antibody (2 h, RT) was followed by three washes in 1X PBS and by incubation (1 h, RT) with a secondary antibody conjugated to Alexa Fluor […] goat anti-mouse (Thermo Fisher Scientific, Carlsbad, CA, United States), diluted 1:200. Coverslips were mounted on microscopy glass slides using a mounting medium containing DAPI (Sigma-Aldrich, Saint-Quentin-Fallavier, Cedex, France). Images were acquired using a fluorescence microscope (Zeiss Observer Z1). Images were analyzed using ImageJ software.

IGROV1VCR [5] = assay: DNA damage, γH2AX immunofluorescence; conditions: 48 h post-treatment with PEP-010, IGROV1VCR; untreated control 20.7 ± 1.7; mean ± SEM, three biological replicates
Method: as §4

IGROV1CDDP [6] = assay: Apoptosis measurement, Annexin V/PI staining and FACS analysis; conditions: PEP-010 12.5 µM, 24 h post-treatment, untreated control 14.6 ± 1.2, mean ± SEM, three independent biological replicates
Method: as §2
(§5) Cell death was assessed using Annexin V-APC and propidium iodide (PI) (BioLegend, San Diego, CA, United States) staining following the manufacturer’s instructions. Results were analyzed as previously described ([Debernardi et al., 2018]). A total of 10,000 events were analyzed using a C6 Accuri Cytometer (Becton-Dickinson, Franklin Lakes, NJ, United States), analysis was performed using integrated software, and Annexin V positive cells (PI positive and negative) were counted as apoptotic.

IGROV1 [7] = assay: as above; conditions: PEP-010 12.5 µM, 24 h post-treatment, untreated control 11 ± 1.3, mean ± SEM, three independent biological replicates
Method: as §2, §5

IGROV1VCR [8] = assay: as above
Method: as §2, §5

[9] = test system: ovarian adenocarcinoma cell models resistant to different chemotherapies; assay: Cell death in monotherapy (Annexin-V/Propidium Iodide staining and flow cytometry); conditions: PEP-010 monotherapy; highest value stated in abstract, dose and cell line not stated there
Method: as §2, §5

| Compound | IC50 (IGROV1CDDP [1]) [nM] | IC50 (IGROV1 [2]) [nM] | fold change (FC) vs. IC50 IGROV1 (IGROV1VCR [3]) | IC50 (IGROV1VCR [3]; MTT assay) [nM] | % of γH2AX positive cells (IGROV1CDDP [4]) [%] | % of γH2AX positive cells (IGROV1VCR [5]) [%] | FC, reduction of the IC50 of paclitaxel (PTX alone vs. PTX + PEP-010) (IGROV1VCR [3]; MTT assay, 72 h, IGROV1VCR, PEP-010 25 µM) | total % of Annexin V positive cells (IGROV1CDDP [6]) [%] | total % of Annexin V positive cells (IGROV1 [7]) [%] | total % of Annexin V positive cells (IGROV1VCR [8]; PEP-010 12.5 µM, 24 h post-treatment, IGROV1VCR, untreated control 12.6 ± 0.9, mean ± SEM, three independent biological replicates) [%] | apoptosis, % of cells, combination with paclitaxel (IGROV1VCR [8]; PEP-010 in combination with paclitaxel, stated in abstract, doses not given) [%] | cell death in monotherapy, % of cells [9] | fold change (FC) vs. IC50 IGROV1 (IGROV1CDDP [1]; IC50 in IGROV1CDDP over IC50 in IGROV1, MTT 72 h) |
| --- | --- | --- | --- | --- | --- | --- | --- | --- | --- | --- | --- | --- | --- |
| CC(=O)O[C@H]1C(=O)[C@@]2(C)[C@H]([C@H](OC(=O)c3ccccc3)[C@]3(O)C[C@H](OC(=O)[C@H](O)[C@@H](NC(=O)c4ccccc4)c4ccccc4)C(C)=C1C3(C)C)[C@]1(OC(C)=O)CO[C@@H]1C[C@@H]2O [Paclitaxel, paclitaxel] | 500 | 750 | 3.9 | 2900 |  |  |  |  |  |  |  |  |  |
| CC[C@]1(O)C[C@H]2CN(CCc3c([nH]c4ccccc34)[C@@](C(=O)OC)(c3cc4c(cc3OC)N(C=O)[C@H]3[C@@](O)(C(=O)OC)[C@H](OC(C)=O)[C@]5(CC)C=CCN6CC[C@]43[C@@H]65)C2)C1 [Vincristine, vincristine] | 900 | 34 | 97 | 3300 |  |  |  |  |  |  |  |  |  |
| COc1cccc2c1C(=O)c1c(O)c3c(c(O)c1C2=O)C[C@@](O)(C(=O)CO)C[C@@H]3O[C@H]1C[C@H](N)[C@H](O)[C@H](C)O1 [Doxorubicin, doxorubicin] | 500 | 400 |  | > 10000 |  |  |  |  |  |  |  |  |  |
| VKKKKIKAEIKIYVETLDDIFEQWAHSEDL [PEP-010] |  |  |  |  | 26.5 ± 3.1 | 29.5 ± 2.6 | 2.2 | 38.7 ± 8.5 | 37.4 ± 1.9 | 37 ± 4 | 87 | up to 55% |  |
| N.N.[Cl][Pt][Cl] [Cisplatin, cisplatin] | 25700 |  | 6.5 | 15000 |  |  |  |  |  |  |  |  | 11.1 |
